Assays:
[1] = system: Neonatal fibroblasts (Hs27); test: Trichostatin A 48 h treatment, gene expression by Real-Time PCR (Example 1); type: cell-based, human
Method: (§1) Neonatal fibroblasts, also designated Hs27, were derived from human foreskins and obtained from the American Type Culture Collection (ATCC). Panc-1 cells are a transformed cell line derived from a pancreatic epitheloid carcinoma of ductal origin, also obtained from ATCC.
(§2) Fibroblasts or Panc-1 cells were seeded into a 6-well tissue culture plate at a density of 50,000 cells/cm^2. Both cell types were cultured in medium containing 10% FBS and DMEM under standard cell culture conditions (37° C., 5% CO2). After reaching confluence (2-3 days), trichostatin A diluted in dimethyl sulfoxide (DMSO) and medium was added at either 2.5 μM or 5 μM to the cultures. Parallel cultures were treated with an equivalent concentration of DMSO as a vehicle control.
(§3) RNA samples were obtained from the treated cultures 48 hours after the addition of trichostatin A or DMSO. The culture medium was removed, the cells were washed with phosphate buffered saline (PBS), and RLT Lysis buffer containing β-mercaptoethanol (Qiagen) was added. The samples were homogenized using Qiashredder columns (Qiagen), and RNA was purified using the RNeasy Mini Kit (Qiagen). RNA quantity and quality was determined using a spectrophotometer, and cDNA was made using the iScript cDNA synthesis kit (BioRad).
(§4) The expression levels of Sox17, HNF-3 beta, Pdx-1, insulin, and glucagon were determined by Real-Time PCR (RT-PCR), as described in Example 15. Samples of 20 ng cDNA were used in each reaction. RT-PCR reactions were performed on the Applied Biosystems 7500, and data was analyzed using the accompanying software. Human pancreas cDNA was included as a positive control. Results were normalized against GAPDH expression levels.
(§5) Real-time PCR amplifcation and quantitative analysis. Unless otherwise stated, all reagents were purchased from Applied Biosystems. Real-time PCR reactions were performed using the ABI PRISM™ 7500 Sequence Detection System. TAQMAN™ FAST UNIVERSAL PCR MASTER MIX™ (ABI, CA) was used with 20 ng of reverse transcribed RNA in a total reaction volume of 20 μl. Each cDNA sample was run in duplicate to allow correction of pipetting errors. Primers and FAM-labeled TAQMAN™ probes were used at concentrations of 200 nM. The level of expression for each target gene was normalized using the pre-developed Applied Biosystem's human glyceraldehyde-3-phosphate dehydrogenase (GAPDH) endogenous control kit. Primers and probes were designed using either ABI PRISM PRIMER EXPRESS™ software or a pre-developed ABI gene analysis kit. For each gene, either one of the primers or the probe were designed to be exon-boundary spanning. This eliminated the possibility of the primers/probe binding to any genomic DNA present. The primer and probe sets are listed as follows: Pdx-1 (Hs00426216), Insulin (Hs00355773), glucagon (Hs00174967), and FoxA2 (HNF 3-beta) (Hs00232764). The remaining primers were designed using the PRIMERS program (ABI, CA). After an initial 95° C. incubation for 20 sec, samples were cycled 40 times in two stages: a denaturation step at 95° C. for 3 sec, followed by an annealing/extension step at 60° C. for 30 sec.
(§6) For each primer/probe set, a cycle time value was determined as the cycle number at which the fluorescence intensity of the PCR reaction reached a specific value in the middle of the exponential region of amplification. An increase in expression of a gene corresponded to a decrease in the number of cycles required for the fluorescence intensity to reach this value.

Panc-1 cells = test: as above; type: cell-based, human; conditions: for GAPDH gene expression / HNF-3 beta gene expression / Insulin gene expression / PDX-1 gene expression / Sox17 gene expression / glucagon gene expression: 48 hours
Method: as §1, §2, §3, §4, §5, §6

[2] = Panc-1 cells treated for 48 hours

CC(/C=C/C(=O)NO)=C\[C@@H](C)C(=O)c1ccc(N(C)C)cc1 [trichostatin A]
GAPDH gene expression ([1]; 2.5 μM): +++ (detectable at less than 35 cycles by RT-PCR with SE less than 0.9)
HNF-3 beta gene expression ([1]; 2.5 μM): +++ (detectable at less than 35 cycles by RT-PCR with SE less than 0.9)
Insulin gene expression ([1]; 2.5 μM): nd (not detectable at >40 cycles by RT-PCR)
PDX-1 gene expression ([1]; 2.5 μM): + (detectable at greater than 35–40 cycles by RT-PCR)
Sox17 gene expression ([1]; 2.5 μM): +++ (detectable at less than 35 cycles by RT-PCR with SE less than 0.9)
glucagon gene expression ([1]; 2.5 μM): +++ (detectable at less than 35 cycles by RT-PCR with SE less than 0.9)
GAPDH gene expression ([1]; 5.0 μM): +++ (detectable at less than 35 cycles by RT-PCR with SE less than 0.9)
HNF-3 beta gene expression ([1]; 5.0 μM): +++ (detectable at less than 35 cycles by RT-PCR with SE less than 0.9)
Insulin gene expression ([1]; 5.0 μM): nd (not detectable at >40 cycles by RT-PCR)
PDX-1 gene expression ([1]; 5.0 μM): + (detectable at greater than 35–40 cycles by RT-PCR)
Sox17 gene expression ([1]; 5.0 μM): +++ (detectable at less than 35 cycles by RT-PCR with SE less than 0.9)
glucagon gene expression ([1]; 5.0 μM): +++ (detectable at less than 35 cycles by RT-PCR with SE less than 0.9)
GAPDH gene expression (Panc-1 cells; 2.5 μM): +++ (detectable at less than 35 cycles by RT-PCR with SE less than 0.9)
HNF-3 beta gene expression (Panc-1 cells; 2.5 μM): +++ (detectable at less than 35 cycles by RT-PCR with SE less than 0.9)
Insulin gene expression (Panc-1 cells; 2.5 μM): + (detectable at greater than 35–40 cycles by RT-PCR)
PDX-1 gene expression (Panc-1 cells; 2.5 μM): +++ (detectable at less than 35 cycles by RT-PCR with SE less than 0.9)
Sox17 gene expression (Panc-1 cells; 2.5 μM): +++ (detectable at less than 35 cycles by RT-PCR with SE less than 0.9)
glucagon gene expression (Panc-1 cells; 2.5 μM): +++ (detectable at less than 35 cycles by RT-PCR with SE less than 0.9)
GAPDH gene expression (Panc-1 cells; 5.0 μM): +++ (detectable at less than 35 cycles by RT-PCR with SE less than 0.9)
HNF-3 beta gene expression (Panc-1 cells; 5.0 μM): +++ (detectable at less than 35 cycles by RT-PCR with SE less than 0.9)
Insulin gene expression (Panc-1 cells; 5.0 μM): + (detectable at greater than 35–40 cycles by RT-PCR)
PDX-1 gene expression (Panc-1 cells; 5.0 μM): +++ (detectable at less than 35 cycles by RT-PCR with SE less than 0.9)
Sox17 gene expression (Panc-1 cells; 5.0 μM): +++ (detectable at less than 35 cycles by RT-PCR with SE less than 0.9)
glucagon gene expression (Panc-1 cells; 5.0 μM): +++ (detectable at less than 35 cycles by RT-PCR with SE less than 0.9)
Pdx-1 expression with 5.0 μm versus 2.5 μM trichostatin A (Panc-1 cells; [2]): 11 times higher
Sox-17 expression with 5.0 μm versus 2.5 μM trichostatin A (Panc-1 cells; [2]): 60 times higher
glucagon expression with 5.0 μm versus 2.5 μM trichostatin A (Panc-1 cells; [2]): 5 times higher

— patent US20080063628A1, “METHODS TO PROMOTE CELL DIFFERENTIATION” (priority 2006, published 2008)
